Data published in ChEMBL document CHEMBL1201862, “PubChem BioAssay data set” (2004).
Where “and” joins values, the source holds several entries; their conditions need not be identical. Equal values may be shown once.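 Cells were grown in 96-well plates and exposed to each compound for 48 hours at five concentrations; endpoints were interpolated linearly between bracketing concentrations, or set to the highest concentration if not reached. Abbreviation: GI50, concentration required for 50% inhibition of growth.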 Calls of active or inactive are those of the source. Rule as the data show it: active = GI50 up to about 1.1 µM and inactive = higher.

Columns and labels:
Test in all cases: DTP human tumour cell line panel, 48 h
Hs-578T = tested on: Hs-578T
RXF 631 = tested on: RXF 631
DMS-273 = tested on: DMS-273
HOP-18 = tested on: HOP-18
LXFL 529 = tested on: LXFL 529
NCI-H226 = tested on: NCI-H226
XF498 = tested on: XF498

## CCOC1=NC(C(F)(F)F)(C(F)(F)F)N=C(N2CCOCC2)O1
Hs-578T
  GI50: > 100 µM (inactive)

## CCOC(=O)c1ncoc1[C@H]1COC(C)(C)O1
RXF 631
  GI50: > 100 µM (inactive)
DMS-273
  GI50: > 100 µM (inactive)
HOP-18
  GI50: > 100 µM (inactive)
LXFL 529
  GI50: > 100 µM (inactive)
NCI-H226
  GI50: > 100 µM (inactive)

## CCCCCCCCCCSCC(CO)NC(=O)/C=C/c1c(C)[nH]c(=O)[nH]c1=O (configuration not stated)
XF498
  GI50: 519 nM (active) and 687 nM (active)
